{"source": "patent US20230150951A1", "about": "“2,5- OR 2,6-DISUBSTITUTED HYDROQUINONE DERIVATIVES WITH AT LEAST ONE CARBOXY, SULFO OR AMIDO GROUP USEFUL AS MEDICAMENTS” (OM PHARMA SA, priority 2020, published 2023)", "key": {"COX2 (cycloxygenase-2)": {"target": "T1, COX2 (cycloxygenase-2) (Homo sapiens, UniProt P35354)", "T1 sequence (P35354 18-604)": "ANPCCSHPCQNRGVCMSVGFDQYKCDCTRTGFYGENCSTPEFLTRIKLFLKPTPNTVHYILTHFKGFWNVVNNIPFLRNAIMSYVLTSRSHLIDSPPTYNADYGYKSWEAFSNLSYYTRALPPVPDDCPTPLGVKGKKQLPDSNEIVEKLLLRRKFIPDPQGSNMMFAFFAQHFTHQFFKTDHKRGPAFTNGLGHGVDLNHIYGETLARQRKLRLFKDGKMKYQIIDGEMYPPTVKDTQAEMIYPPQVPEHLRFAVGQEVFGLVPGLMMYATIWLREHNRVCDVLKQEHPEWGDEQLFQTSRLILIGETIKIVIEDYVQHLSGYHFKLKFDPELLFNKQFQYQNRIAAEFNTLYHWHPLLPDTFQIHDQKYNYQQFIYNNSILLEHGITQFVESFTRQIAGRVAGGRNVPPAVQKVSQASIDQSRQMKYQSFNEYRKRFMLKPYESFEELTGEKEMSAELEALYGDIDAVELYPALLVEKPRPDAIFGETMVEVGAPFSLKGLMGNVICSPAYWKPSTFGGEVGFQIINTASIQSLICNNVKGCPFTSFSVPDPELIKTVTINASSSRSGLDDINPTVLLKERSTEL", "assay": "Cyclooxygenase enzyme inhibition", "format": "biochemical"}, "physchem": {"assay": "physchem", "details": "water"}, "Pan02 tumor cells": {"system": "Pan02 tumor cells", "assay": "Subcutaneous murine pancreatic cancer syngenic model (Pan02)", "format": "in vivo, C57BL/6 mice", "set-up": "Mean % inhibition of tumor volume Pan02 model: concentration or dose not given beside the values", "procedure": "(§1) The objective of this study was to evaluate preclinically the in vivo therapeutic efficacy study of compounds according to the present invention for the treatment of subcutaneously murine pancreatic cancer syngenic model (Pan02) in female C57BL/6 mice and kidney cancer syngenic model (Renca) in female BALB/c mice.\nCell Culture: the Pan02 tumor cells were maintained in vitro with RPMI 1640 medium supplemented with 10% fetal bovine serum at 37° C. in an atmosphere of 5% CO2 in air. The cells in exponential growth phase were harvested and quantitated by cell counter before tumor inoculation.\nTumor Inoculation for Pan02 model: each mouse was inoculated subcutaneously in the right front flank region with Pan02 tumor cells (3×10^6) in 0.1 mL of PBS for tumor development.\n(§2) Randomization: The randomization was started when the mean tumor size reaches approximately 100 (80-110) mm^3. For both models, 48 mice were enrolled in the study. All animals were randomly allocated to 6 study groups. Randomization were performed based on “Matched distribution” method using the multi-task method (StudyDirector™ software, version 3.1.399.19). The date of randomization was denoted as day 0.\n(§3) Observation and Data Collection: After tumor cells inoculation, the animals were checked daily for morbidity and mortality. During routine monitoring, the animals were checked for any effects of tumor growth and treatments on behavior such as mobility, food and water consumption, body weight gain/loss (body weights were measured twice per week after randomization), eye/hair matting and any other abnormalities. Mortality and observed clinical signs were recorded for individual animals in detail.\n(§4) Tumor volumes were measured twice per week after randomization in two dimensions using a caliper, and the volume were expressed in mm3 using the formula: “V=(L×W×W)/2, where V is tumor volume, L is tumor length (the longest tumor dimension) and W is tumor width (the longest tumor dimension perpendicular to L). Tumor weight were measured at the end of study. Dosing as well as tumor and body weight measurements were conducted in a Laminar Flow Cabinet.\n(§5) Statistical Analysis: To compare tumor volumes of different groups at a pre-specified day, Bartlett's test was firstly used to check the assumption of homogeneity of variance across all groups. When the p-value of Bartlett's test is >0.05, One-way ANOVA were used to test overall equality of means across all groups.\n(§6) If the p-value of the One-way ANOVA is <0.05, post hoc testing by running Tukey's HSD (honest significant difference) tests for all pairwise comparisons, and Dunnett's tests for comparing each treatment group with the vehicle group were performed. When the p-value of Bartlett's test is <0.05, Kruskal-Wallis test were used to test overall equality of medians among all groups. If the p-value the Kruskal-Wallis test is <0.05, post hoc testing by running Conover's non-parametric test for all pairwise comparisons or for comparing each treatment group with the vehicle group were performed, both with single-step p-value adjustment. All statistical analyses were done in R-a language and environment for statistical computing and graphics (version 3.3.1). All tests are two-sided unless otherwise specified, and p-values of <0.05 are regarded as statistically significant."}, "Renca tumor cells": {"system": "Renca tumor cells", "assay": "Subcutaneous kidney cancer syngenic model (Renca)", "format": "in vivo, BALB/c mice", "set-up": "concentration or dose not given beside the values", "description": "as §1\nThe cells in exponential growth phase were harvested and quantitated by cell counter before tumor inoculation.\nTumor Inoculation for Renca model: each mouse was inoculated subcutaneously in the right rear flank region with Renca tumor cells (1×10^6) in 0.1 mL of PBS for tumor development.\nas §2, §3, §4, §5, §6"}, "[1]": {"details": "day 13, 15 mg/kg, 5 μL/g, I.V., QD*5 for 2 weeks"}}, "data": [{"smiles": "O=C(O)c1cc(NC(=O)c2cc(O)c(C(=O)Nc3ccc(O)c(C(=O)O)c3)cc2O)ccc1O", "note": "[Ic-007a, 5-(4-(3-carboxy-4-hydroxyphenylaminocarbonyl)-2,5-dihydroxybenzamido)-2-hydroxy benzoic acid]", "values": [{"measurement": "Inhibition of COX2", "setting": "COX2 (cycloxygenase-2)", "result": "partially inhibition"}]}, {"smiles": "O=C(O)c1cc(NC(=O)c2cc(O)cc(C(=O)Nc3ccc(O)c(C(=O)O)c3)c2O)ccc1O", "note": "[IIc-007a, 5-(3-(3-carboxy-4-hydroxyphenylaminocarbonyl)-2,5-dihydroxybenzamido)-2-hydroxy benzoic acid]", "values": [{"measurement": "Inhibition of COX2", "setting": "COX2 (cycloxygenase-2)", "result": "partially inhibition"}, {"measurement": "solubility", "setting": "physchem", "result": 1800, "unit": "µg/mL"}]}, {"smiles": "O=C(O)c1cc(O)c(CN(Cc2cc(O)c(C(=O)O)cc2O)Cc2cc(O)c(C(=O)O)cc2O)cc1O", "note": "[IIIc-061a, Tris(4-carboxy-2,5-dihydroxyphenylmethyl)amine]", "values": [{"measurement": "Inhibition of COX2", "setting": "COX2 (cycloxygenase-2)", "result": "partially inhibition"}]}, {"smiles": "O=C(O)c1cc(O)cc(CS(=O)(=O)Cc2cc(O)cc(C(=O)O)c2O)c1O", "note": "[IVc-059a, 3-((2,5-Dihydroxy-3-carboxyphenyl)methylsulfonylmethyl)-2,5-dihydroxybenzoic acid]", "values": [{"measurement": "Tumor growth (in words)", "setting": "Pan02 tumor cells; 15 mg/kg I.V.", "result": "significantly suppressed tumor growth"}, {"measurement": "TGI value", "setting": "Pan02 tumor cells; 15 mg/kg I.V., P<0.05", "result": 20.98, "unit": "%"}, {"measurement": "Mean % inhibition of tumor volume Pan02 model", "setting": "Pan02 tumor cells; Day 0", "result": "−0.11", "unit": "%"}, {"measurement": "Mean % inhibition of tumor volume Pan02 model", "setting": "Pan02 tumor cells; Day 3", "result": 19.86, "unit": "%"}, {"measurement": "Mean % inhibition of tumor volume Pan02 model", "setting": "Pan02 tumor cells; Day 6", "result": 18.64, "unit": "%"}, {"measurement": "Mean % inhibition of tumor volume Pan02 model", "setting": "Pan02 tumor cells; Day 9", "result": 18.49, "unit": "%"}, {"measurement": "Mean % inhibition of tumor volume Pan02 model", "setting": "Pan02 tumor cells; Day 13", "result": 20.98, "unit": "%"}, {"measurement": "TGI (%)", "setting": "Pan02 tumor cells; [1]", "result": 20.98, "unit": "%"}, {"measurement": "Tumor volume ± SEM (mm^3)", "setting": "Pan02 tumor cells; [1]", "result": "148.49 ± 7.05 (8) mm^3"}, {"measurement": "Mean % inhibition of tumor volume Renca model", "setting": "Renca tumor cells; Day 0", "result": 0.05, "unit": "%"}, {"measurement": "Mean % inhibition of tumor volume Renca model", "setting": "Renca tumor cells; Day 3", "result": "−0.90", "unit": "%"}, {"measurement": "Mean % inhibition of tumor volume Renca model", "setting": "Renca tumor cells; Day 6", "result": 5.02, "unit": "%"}, {"measurement": "Mean % inhibition of tumor volume Renca model", "setting": "Renca tumor cells; Day 9", "result": 14.83, "unit": "%"}, {"measurement": "Mean % inhibition of tumor volume Renca model", "setting": "Renca tumor cells; Day 13", "result": 23.07, "unit": "%"}, {"measurement": "Mean % inhibition of tumor volume Renca model", "setting": "Renca tumor cells; Day 16", "result": 19.42, "unit": "%"}, {"measurement": "Inhibition of COX2", "setting": "COX2 (cycloxygenase-2)", "result": "partially inhibition"}]}]}
